Data on 15 compounds can be found in patent US6888001B2, “Pyridyl ethers and thioethers as ligands for nicotinic acetylcholine receptor and its therapeutic application” (priority 1998, dated 2005).

Like-named read-outs stand apart in the source and are kept apart here.

One assay has as its target T1, α4β2 nAChR (Rattus norvegicus, UniProt P09483+P12390).
T1 construct: crude synaptic membrane preparations from rat cerebral cortex, striatum and hippocampus; from tissue; host or cells: rat cerebral cortex, striatum and hippocampus (crude synaptic membranes, P2 fraction)
Description: Binding of 3H-cytisine to α4β2 nAChR, crude synaptic membranes. As to conditions: for inhibition at 10 µM: read-out: α4β2 % Inhibition at 10 μM. On the procedure:
α4β2 Nicotinic Acetylcholine Receptor (α4β2 nAChR)
In Vitro Protocol for Determination of α4β2 nAChR Binding Potencies of Ligands
Binding of ^3H-cytisine to neuronal nicotinic acetylcholine receptors was accomplished using crude synaptic membrane preparations from rat cerebral cortex, striatum and hippocampus. Either fresh or frozen membranes were homogenized in ˜50 volumes of 10 mM HEPES (N-2-Hydroxyethylpiperazine-N′-2-Ethanesulfonic acid, pH 7.4) and centrifuged at 42,000×g. The P2 fraction was resuspended in ˜40 volumes of 10 mM HEPES and centrifuged at 42,000×g. This step was repeated and the P2fraction was resuspended in 25 volumes (e.g. 1 g of original into 25 mL) of a medium comprising Na^+-HEPES buffer (10 mM, pH 7.4), 5 mM MgCl2, 0.01% powdered bovine serum albumin (BSA) and 100 mM NaCl. To initiate the binding reaction, test compound (100 μL), Na-HEPES buffered incubation medium (400 μL), ^3H-cytisine (250 μL) and the suspension of biological membranes (250 μL) were mixed, and then the samples were incubated at 23° C. for 40 minutes. The binding reaction was terminated by filtration using a Brandel Cell Harvester and the amount of bound ^3H-cytisine for each sample was quantitated using a Wallac LKB 1205 Betaplate liquid scintillation counter. All test compounds were screened at 10 μM in quadruplicate. Nonspecific binding was determined using 10 μM (+)-epibatidine to block all binding of ^3H-cytisine to the α4β2 nAChR. The activity of each test compound was calculated as follows. After correcting for nonspecific binding, the percent inhibition of specific binding (total binding minus nonspecific) was calculated. Each active compound was further tested at five concentrations to generate a concentration-inhibition curve. The IC50 values were determined using the Prism (GraphPad Software) nonlinear regression program.

Another assay has as its target T2, α7 nAChR (Rattus norvegicus, UniProt Q05941).
T2 construct: crude synaptic membrane preparations from rat cerebral cortex, striatum and hippocampus; from tissue; host or cells: rat cerebral cortex, striatum and hippocampus (crude synaptic membranes, P2 fraction)
As to the kind of experiment: Binding of 3H-MLA to α7 nAChR, crude synaptic membranes. To be noted: read-out: α7 (% Inh @ 10 uM). On the procedure:
α7 Nicotinic Acetylcholine Receptor (α7nAChR)
In Vitro Protocol for Determination of α7nAChR Binding Potencies of Ligands
Binding of ^3H-MLA (methylcaconitine) to neuronal nicotinic acetylcholine receptors was accomplished using crude synaptic membrane preparations from rat cerebral cortex, striatum and hippocampus. Either fresh or frozen membranes were homogenized in ˜50 volumes of 10 mM HEPES (N-2-Hydroxyethylpiperazine-N′-2-Ethanesulfonic acid, pH 7.4) and centrifuged at 42,000×g. The P2 fraction was resuspended in ˜40 volumes of 10 mM HEPES and centrifuged at 42,000×g. This step was repeated and the P2 fraction was resuspended in 25 volumes (e.g. 1 g of original into 25 mL) of a medium comprised of Na^+-HEPES buffer (10 mM, pH 7.4), 5 mM MgCl2, 0.01% powdered bovine serum albumin (BSA), and 100 mM NaCl. To initiate the binding reaction, test compound (100 μL), Na-HEPES buffered incubation medium (400 μL), ^3H-MLA (250 μL) and the suspension of biological membranes (250 μL) were mixed, and then the samples were incubated at 23° C. for 40 minutes., The binding reaction was terminated by filtration using a Brandel Cell Harvester, and the amount of bound ^3H-MLA for each sample was quantitated using a Wallac LKB 1205 Betaplate liquid scintillation counter. All test compounds were screened at 10 μM in quadruplicate. Nonspecific binding was determined using 10 μM MLA to block all binding of ^3H-MLA to the α7 nAChR. The activity of each test compound was calculated as follows. After correcting for nonspecific binding, the percent inhibition of specific binding (total binding minus nonspecific) was calculated. Each active compound was further tested at five concentrations to generate a concentration-inhibition curve. The IC50 values were determined using the Prism (GraphPad Software) nonlinear regression program.

Where [1] appears, read: 3H-cytisine, rat cerebral cortex, striatum and hippocampus membranes, IC50 from five concentrations, read-out: α4β2.

T2 sequence (Q05941 23-502): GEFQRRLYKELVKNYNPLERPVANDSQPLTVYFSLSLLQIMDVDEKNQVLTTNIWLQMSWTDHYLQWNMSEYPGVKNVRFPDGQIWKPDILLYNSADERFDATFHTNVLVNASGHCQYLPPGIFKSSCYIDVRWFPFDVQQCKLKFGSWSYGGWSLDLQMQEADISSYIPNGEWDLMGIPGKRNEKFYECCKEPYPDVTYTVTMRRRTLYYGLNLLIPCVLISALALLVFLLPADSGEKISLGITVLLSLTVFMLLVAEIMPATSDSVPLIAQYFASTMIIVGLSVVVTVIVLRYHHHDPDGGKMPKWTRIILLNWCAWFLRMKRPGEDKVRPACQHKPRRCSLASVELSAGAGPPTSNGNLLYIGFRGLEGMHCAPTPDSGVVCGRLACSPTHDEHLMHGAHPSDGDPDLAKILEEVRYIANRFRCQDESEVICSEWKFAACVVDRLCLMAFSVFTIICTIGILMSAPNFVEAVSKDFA
T1 sequence (P09483 31-630): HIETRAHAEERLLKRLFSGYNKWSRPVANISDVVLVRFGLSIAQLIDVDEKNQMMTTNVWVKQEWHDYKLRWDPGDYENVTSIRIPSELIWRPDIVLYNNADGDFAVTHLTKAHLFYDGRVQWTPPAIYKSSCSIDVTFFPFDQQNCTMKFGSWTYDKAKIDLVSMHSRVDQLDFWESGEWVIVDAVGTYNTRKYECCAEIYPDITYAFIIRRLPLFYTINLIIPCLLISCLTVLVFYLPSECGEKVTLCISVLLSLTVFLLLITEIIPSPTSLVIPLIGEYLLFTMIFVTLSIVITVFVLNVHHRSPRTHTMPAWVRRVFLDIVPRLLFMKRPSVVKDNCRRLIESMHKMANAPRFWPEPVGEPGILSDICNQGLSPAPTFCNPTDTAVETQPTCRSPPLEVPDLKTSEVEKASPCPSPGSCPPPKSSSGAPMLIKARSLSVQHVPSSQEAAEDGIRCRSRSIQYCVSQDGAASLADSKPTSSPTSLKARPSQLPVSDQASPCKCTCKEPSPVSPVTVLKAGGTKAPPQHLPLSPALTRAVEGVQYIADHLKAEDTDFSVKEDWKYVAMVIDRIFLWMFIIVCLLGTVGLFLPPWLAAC
T1 sequence (P12390 25-500): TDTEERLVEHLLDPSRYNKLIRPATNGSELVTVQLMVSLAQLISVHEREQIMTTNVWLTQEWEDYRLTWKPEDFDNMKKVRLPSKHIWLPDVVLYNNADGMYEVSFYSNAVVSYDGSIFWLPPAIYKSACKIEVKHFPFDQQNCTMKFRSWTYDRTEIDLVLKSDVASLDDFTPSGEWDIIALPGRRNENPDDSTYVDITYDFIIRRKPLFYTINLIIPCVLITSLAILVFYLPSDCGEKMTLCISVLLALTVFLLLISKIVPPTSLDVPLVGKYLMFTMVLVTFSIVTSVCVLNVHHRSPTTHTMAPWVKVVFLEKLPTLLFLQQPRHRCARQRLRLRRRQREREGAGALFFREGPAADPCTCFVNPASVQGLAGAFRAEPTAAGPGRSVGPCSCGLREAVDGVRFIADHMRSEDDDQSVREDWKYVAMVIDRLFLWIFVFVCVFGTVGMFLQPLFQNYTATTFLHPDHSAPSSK

Consider `N#Cc1ccc(-c2cc(O[C@@H]3CCNC3)cnc2Cl)cc1` [Example 13, 2-Chloro-3-(4-cyano)phenyl-5-(3-(R)-pyrrolidinyloxy)-pyridine], for which the IC50 at α4β2 nAChR (setting [1]) was 22 nM. In addition, the inhibition at 10 µM on α7 nAChR worked out at 26%.
`c1cncc(O[C@H]2CCNC2)c1` [Example 3, 3-(3-(S)-Pyrrolidinyloxy)-pyridine]: the IC50 on α4β2 nAChR (setting [1]) amounted to 449 nM. The inhibition at 10 µM on α7 nAChR was 5%.
Turning to `c1cncc(O[C@H]2CCCNC2)c1` [Example 11, 3-(3-(S)-Piperidinyloxy)-pyridine], the IC50 on α4β2 nAChR was 673 nM. Also, the inhibition at 10 µM at α7 nAChR came to 86%.
For `c1cncc(O[C@@H]2CCNC2)c1` [Example 4, 3-(3-(R)-Pyrrolidinyloxy)-pyridine], the IC50 on α4β2 nAChR (setting [1]) amounted to 45 nM. For the same compound, the inhibition at 10 µM on α7 nAChR is 11%.
Turning to `CCN1CCC(Oc2cccnc2)C1` (stereo not drawn) [Example 8, 3-(1-Ethyl-3-pyrrolidinyloxy)-pyridine], the inhibition at 10 µM at α4β2 nAChR is 71%; at α7 nAChR, 18%.
On to `c1cncc(OC2CCNC2)c1` (stereo not drawn) [Example 2, 3-(3-Pyrrolidinyloxy)-pyridine], for which, at α4β2 nAChR (setting [1]), the IC50 was 209 nM. Moreover, the inhibition at 10 µM at α7 nAChR is -15%.
In the case of `CN1CC[C@@H](Oc2cccnc2)C1` [Example 5, 3-(1-Methyl-3-(R)-pyrrolidinyloxy)-pyridine], on α4β2 nAChR (setting [1]), the IC50 was found to be 544 nM. The inhibition at 10 µM at α7 nAChR turned out to be 20%.
Turning to `c1cncc(OC2CNC2)c1` [Example 1, 3-(3-Azetidinyloxy)-pyridine], the inhibition at 10 µM came to 46% on α4β2 nAChR and 21% at α7 nAChR.
For `c1cncc(OC2CCCNC2)c1` (stereo not drawn) [Example 10, 3-(3-Piperidinyloxy)-pyridine], on α4β2 nAChR (setting [1]), the IC50 was found to be 204 nM. For the same compound, the inhibition at 10 µM on α7 nAChR is 19%.
In the case of `Clc1ncc(O[C@@H]2CCNC2)cc1Br` [Example 12, 2-Chloro-3-bromo-5-(3-(R)-pyrrolidinyloxy)-pyridine], the IC50 on α4β2 nAChR (setting [1]) was determined as 94 nM. Besides, the inhibition at 10 µM at α7 nAChR is 11%.
`Clc1ccc(O[C@@H]2CCNC2)cn1` [Example 6, 2-Chloro-5-(3-(R)-pyrrolidinyloxy)-pyridine] registered an IC50 on α4β2 nAChR of 466 nM. Besides, on α7 nAChR, the inhibition at 10 µM was 20%.
In the case of `CC(C)N1CCC(Oc2cccnc2)C1` (stereo not drawn) [Example 9, 3-(1-Isopropyl-3-pyrrolidinyloxy)-pyridine], the inhibition at 10 µM was 30% at α4β2 nAChR and 19% at α7 nAChR.
Regarding `CN1CCC(Oc2cccnc2)C1` (stereo not drawn) [Example 7, 3-(1-Methyl-3-pyrrolidinyloxy)-pyridine], at α4β2 nAChR (setting [1]), the IC50 was 92 nM. Further, the inhibition at 10 µM on α7 nAChR is 22%.
On α4β2 nAChR, `C[Si](C)(C)C#Cc1ccc(-c2cc(O[C@@H]3CCNC3)cnc2Cl)cc1` [Example 15, 2-Chloro-3-(4-trimethylsilylethynyl)phenyl-5-(3-(R)-pyrrolidinyloxy)-pyridine] came in with an IC50 of 25 nM. In addition, the inhibition at 10 µM on α7 nAChR was 22%.
Take `COc1cccc(-c2cc(O[C@@H]3CCNC3)cnc2Cl)c1` [Example 14, 2-Chloro-3-(3-methoxy)phenyl-5-(3-(R)-pyrrolidinyloxy)-pyridine]: at α4β2 nAChR (setting [1]), the IC50 was 58 nM. Further, the inhibition at 10 µM at α7 nAChR worked out at 33%.
